Reference: patent US11214806B2, “Marker, method and kit for observing effect of compound or drug on cells in real time, and use thereof” (priority 2016, dated 2022)
“Also recorded” adds a separate entry of the source.

Assays:
Agrobacterium = assay: Effect of ML-7 on Agrobacterium viability; type: cell-based, A. tumefaciens; details: 10 μM ML-7
Protocol: (§1) The inventor wants to determine if the VirE2 movement observed during our studies is directly relevant to Agrobacterium-mediated transformation. The present invention tested the effect of a selective myosin light chain kinase inhibitor ML-7 on Arabidopsis root transformation. Root segments were inoculated with a tumor inducing strain A348 in the presence of 10 μM ML-7. […] The present invention tested the toxicity of ML-7 on either the root or Agrobacterium growth at 10 μM ML-7. The root segments were exposed to 10 μM of ML-7 for 2 days, which was the time span for the bacterium-Arabidopsis co-cultivation.
(§2) FIG. 9 illustrated effects of ML-7 treatment on root tumorigenesis assay. Root segments from 10-day old wild type A. thaliana seedlings were infected with a tumor inducing Agrobacterium stain A348. Tumors were photographed three weeks later. (a) Tumors formed with or without ML-7 treatment. ML-7 was added (10 μM) into the col-cultivation mixture and then washed off when the root segments were transferred onto new plates for tumor formation. (b) Tumorigenesis efficiency as determined by percentage of root segments with tumors. (c) Effect of ML-7 on root segment viability. (d) Effect of ML-7 on Agrobacterium viability

[1] = tested on: VirE2 trafficking in N. benthamiana (Nb308A) leaf epidermal cells; assay: Real-time VirE2-GFPcomp trafficking in agroinfiltrated tobacco leaf epidermal cells (split-GFP, confocal microscopy); type: cell-based; details: for effect on real-time movement process of protein VirE2-GFP / toxicity as judged from VirE2-GFP movement: drug infiltrated into leaf six hours before observation, FIG. 11; for effect on VirE2 trafficking: infiltrated 6 h before observation, control 0.5% DMSO, FIG. 1b-d
Protocol: To visualize Agrobacterium-delivered VirE2, agroinfiltration was performed as described previously. Briefly, the bacteria were grown overnight; the cultures were diluted 50 times in MG/L and grown for 6 h. The bacteria were collected and re-suspended in infiltration buffer (10 mM MgCl2, 10 mM MES, pH5.5) to OD600=1.0. The bacterial suspension was infiltrated using a syringe to the underside of fully expended N. benthamiana leaves. The infiltrated plant was placed at 22° C. in a photoperiod of 16 h light/8 h dark. In order to observe a real-time effect of a compound or a drug on cells in real time, the inventor injected and infiltrated the compound or the drug into a leaf injected and infiltrated with A. tumefaciens EHA105virE2::GFP11 cell at an appropriate concentration, and observed with a UPLSAPO×60 N.A. 1.20 water immersion lens under a confocal microscope after six hours.
A PerkinElmer UltraView Vox Spinning Disk system with EM-CCD cameras was used for confocal microscopy. To observe leaf epidermis, agroinfiltrated leaf tissues were detached from N. benthamiana plants and put in 2% low-melting agarose gel on a glass slide with a coverslip. All images were taken in multiple focal planes (Z-stacks), and were processed to show the extended focus image or 3D opacity view by Volocity® 3D Image Analysis Software 6.2.1.
FIG. 1 illustrated Agrobacterium-delivered VirE2 trafficking on a cellular structure and entering the nucleus. A. tumefaciens EHA105virE2::GFP11 cells were infiltrated into transgenic N. benthamiana (Nb308A) leaves expressing both GFP1-10 and DsRed. […] Red, free DsRed; Green, VirE2-GFPcomp. (a) Time-lapse images of VirE2 aggregates trafficking along a linear cellular structure and entering the nucleus. Relative time is shown at the top right. Scale bar represents 20 μm. (b) Effects of chemical treatments on VirE2 trafficking. Chemicals were infiltrated into leaf samples 6 h before observation. Control, 0.5% DMSO. Colc, colchicine […] CytoD, cytochalasin D 20 μM. BFA, brefeldin A 100 μg/mL. Scale bar represents 20 μm. (c) Mean velocities of VirE2 aggregate movement after chemical treatments. Data analyzed with ANOVA and Tukey test, p<0.05. (d) Movement tracking of 20 individual VirE2 aggregates plotted to a common origin for each treatment.
FIG. 4 illustrated effects of ML-7 and myosin-tail overexpression on VirE2 trafficking. (a) Effect of ML-7, a myosin light chain kinase inhibitor, on VirE2 trafficking. A. tumefaciens EHA105virE2::GFP11 cells were infiltrated into transgenic N. benthamiana (Nb308A) leaves expressing both GFP1-10 and DsRed. The leaves were infiltrated with 100 μM ML-7 or 1% DMSO as control 4 h before imaging. […] Red, free DsRed; Green, VirE2-GFPcomp. The movement tracking of 20 individual VirE2 aggregates plotted to a common origin is shown below the figure. Scale bar represents 20 μm. (b) Mean velocity of the VirE2 aggregates after ML-7 treatment. (c) Effects of myosin-tail overexpression on VirE2 trafficking. A. tumefaciens EHA105virE2::GFP11 cells harboring a binary plasmid which encodes a tail fragment of respective myosins downstream of 35S promoter were infiltrated into transgenic N. benthamiana (Nb308A) leaves expressing both GFP1-10 and DsRed. […] Red, free DsRed; Green, VirE2-GFPcomp. The movement tracking of 20 individual VirE2 aggregates plotted to a common origin is shown below the figure. Scale bar represents 20 μm. (d) Mean velocity of VirE2 aggregate movement under overexpression of myosin tails. EV, empty vector control. (e) Western analysis of crude extracts from leaf samples agroinfiltrated with myosin-tail constructs. EV, empty vector control. Myosin tails were HA tagged. GFP1-10 was detected to assess the amount of sample loaded, as shown in the lower panel. […]
FIG. 11 illustrated an effect of a drug on VirE2 movement. A. tumefaciens EHA105virE2::GFP11 cell was injected and infiltrated into a transgenic tobacco line Nb308A constantly expressing a GFP1-10 and a DsRed. […]

root segments = assay: Effect of ML-7 on root segment viability; type: cell-based, A. thaliana; details: 10 μM ML-7 for 2 days, in the presence of hormones (auxin and cytokinin); FIG. 9c
Protocol: as §1, §2

[2] = tested on: Arabidopsis root transformation; assay: Root tumorigenesis assay (Arabidopsis root transformation with tumor inducing strain A348); type: cell-based, A. thaliana; details: 10 μM ML-7 in co-cultivation mixture, FIG. 9
Protocol: Arabidopsis thaliana seeds were surface-sterilized with 0.5% NaClO solution and placed onto solidified ½×MS medium supplemented with 1% sucrose and 0.5 g L^−1 MES, pH 5.8. The plates were then incubated under a 16 hour photoperiod at 25° C. for 10 to 12 days. Roots from individual seedlings were cut into 3-5 mm segments and re-suspended in 1 ml fresh ½×MS medium containing A. tumefaciens cells at a concentration of 5×10^8 cell/ml unless specified otherwise. The mixtures were spread onto a solidified ½×MS plate and subsequently incubated at 25° C. for 2 days. The root segments were aligned onto ½×MS medium plates containing […] cefotaxime and kept at 25° C. for 4 weeks before photographing.
as §2

microtubule = assay: Effects of chemicals on cellular structures: microtubule marker RFP-MBD; type: cell-based, N. benthamiana; details: 500 μM colchicine at 6 h before imaging; tobacco leaves
Protocol: (§3) FIG. 5 illustrated effects of chemicals on respective cellular structures. Wild type N. benthamiana leaves were agroinfiltrated with binary plasmids encoding different fluorescent markers. The epidermal cells were examined at 2 d post agroinfiltration under confocal microscope with Olympus UPLSAPO 60×N.A. 1.20 water immersion objective. Upper panels a-c: leaf samples expressing subcellular markers. Lower panels d-f: leaf samples expressing subcellular markers were treated with chemicals. (a) RFP-MBD. MBD, Microtubule Binding Domain. (b) ER-mCherry. (c) tdTomato-ABD2. ABD, Actin Binding Domain. (d) RFP-MBD. Leaf samples were treated with 500 μM colchicine at 6 h before imaging. (e) ER-mCherry. Leaf samples were treated with 100 μg/mL BFA at 6 h before imaging. (f) tdTomato-ABD. Leaf samples were treated with 20 μM cytochalasin D at 6 h before imaging. Scale bar represents 20 μm.

actin structures = assay: Effects of chemicals on cellular structures: actin marker tdTomato-ABD2; type: cell-based, N. benthamiana; details: 20 μM cytochalasin D at 6 h before imaging; tobacco leaves
Protocol: as §3

ER = assay: Effects of chemicals on cellular structures: ER marker ER-mCherry; type: cell-based, N. benthamiana; details: 100 μg/mL BFA at 6 h before imaging; tobacco leaves
Protocol: as §3

[3] = colchicine 500 μM, cytochalasin D 20 μM, brefeldin A 100 μg/mL

O=S(=O)(c1cccc2c(I)cccc12)N1CCCNCC1 [ML-7] was tested, and the Agrobacterium growth (Agrobacterium) was “did not inhibit”, the “effect on VirE2 movement” value ([1]; 100 μM ML-7 infiltrated 4 h before imaging, control 1% DMSO, FIG. 4) was “obviously stops” and the “decrease of average rate of the movement of the VirE2 compared with control group” value ([1]; 100 μM ML-7 infiltrated 4 h before imaging, control 1% DMSO, FIG. 4b) was 95%. The “growth of root segments” value (root segments) was “did not affect” and the “transformation efficiency (tumorigenesis)” value [2] was “significantly reduced”.

In the case of Clc1ccc(COC(Cn2ccnc2)c2ccc(Cl)cc2Cl)cc1 (centres unmarked) [Econazole], the “effect on real-time movement process of protein VirE2-GFP” value [1] is reported as “significantly affects” and the “toxicity as judged from VirE2-GFP movement” value [1] is reported as “highly toxic”.

COc1cc2c(c(OC)c1OC)-c1ccc(OC)c(=O)cc1[C@@H](NC(C)=O)CC2 [colchicine] was tested, and the “average velocity of VirE2 movement, relative to the control” value ([1]; colchicine 500 μM, cytochalasin D 20 μM, brefeldin A 100 μg/mL, 6 h before observation, over 20 events per treatment, FIG. 1c) was “over 60%”, the “effect on VirE2 trafficking” value [1, 3] was “minor effect; also recorded: did not affect the VirE2 trafficking significantly” and the “effect on microtubule structure” value (microtubule) was “disrupted”.

With CC(=O)N1CCN(c2ccc(OCC3COC(Cn4ccnc4)(c4ccc(Cl)cc4Cl)O3)cc2)CC1 (centres unmarked) [Ketoconazole] the “effect on real-time movement process of protein VirE2-GFP” value [1] was “does not affect” and the “toxicity as judged from VirE2-GFP movement” value [1] was “less toxic”.

For C=C1[C@@H](C)[C@H]2[C@H](Cc3ccccc3)NC(=O)[C@]23[C@H](OC(C)=O)/C=C/[C@@](C)(O)C(=O)[C@@H](C)C/C=C/[C@H]3[C@@H]1O [cytochalasin D], the “effect on VirE2 trafficking” value [1, 3] was “severely affected”, the “effect on VirE2 trafficking” value ([1]; colchicine 500 μM, cytochalasin D 20 μM, brefeldin A 100 μg/mL, listed as CytoD) was “stop the VirE2 movement” and the “effect on actin structure” value (actin structures) was “disrupted”.

For C[C@H]1CCC/C=C/[C@@H]2C[C@H](O)C[C@H]2[C@H](O)/C=C/C(=O)O1 [brefeldin A], the “effect on VirE2 trafficking” value [1, 3] was “severely affected” and the “effect on ER structure” value (ER) was “disrupted”.
